Reference: patent US20080268535A1, “Method for Inducing the Differentiation of Human Myelogenous Leukemia Cells Into Megakarocytes or Thrombocytes” (EWHA University - Industry Collaboration Foundation, priority 2005, published 2008)
“Also recorded” adds a separate entry of the source.

Experiments:
Format in all cases: cell-based, human
K562 cells [1] = experiment: Cell differentiation of K562 cells on OP9 cells, optical microscopy; conditions: for cell morphology (optical microscope): 5 days
Method: A stromal line of OP9 cells derived from […] was aliquoted at a density of 1×10^5 cells in 6-well plates and incubated for 24 hrs. After the OP9 cells were uniformly attached onto the bottom of the plates, K562 cells were layered at a density of 1×10^5 cells on the OP9 cells in 6-well plates. The cells were treated with 40 μg/ml of (R)-NALPCE, or 500 pmole, 10 nmole or 50 nmole of PMA before incubation for 5 days. They were observed under an optical microscope with 200× magnification.

K562 cells [2] = experiment: Differentiation inductivity, lineage receptor expression by FACS, K562 cells
Method: K562 cells were aliquoted at a density of 2×10^5 per well in 6-well plates and treated with 40 μg/ml of (R)-NALPCE or 30 nM of PMA (12-phorbol myristate-13-acetate, Calbiochem.), followed by incubation for 4 days. After centrifugation (1,000 rpm, 10 min), the cell pellets thus obtained were washed three times with 0.01% bovine serum albumin (BSA) in PBS. The cells were incubated with 10 μl of anti-CD41-fluorescein-5-isothiocyanate (FITC) (Dako Chemicals, Carpenteria, Calif.), 20 μl of anti-CD16-Cy-Chrome (Cy) (BD Pharmingen), 10 μl of anti-glycophorin ACD235a-phycoerythrin (PE) (Dako Chemicals, Carpenteria, Calif.), and 20 μl of anti-CD14-allophycocyanin (APC) (BD Pharmingen) in 200 μl of 0.01% bovine serum albumin (BSA)-PBS at 4° C. for 50 min while spinning to realize homogeneous fluorescent staining. After centrifugation (1,000 rpm, 10 min), the cell pellets thus obtained were washed three times with 0.01% bovine serum albumin (BSA) in PBS. Fluorescence was analyzed on a fluorescence-activated cell sorter (FACS) (Aria) using a Cellquest program.

HEL cells [3] = experiment: Cell differentiation of HEL cells, optical microscopy; conditions: 5 μg/ml (R)-NALPCE, 10 nmole PMA or 50 ng/ml TPO, 5 days
Method: HEL cells were aliquoted at a density of 3×10^5 cells per well in 6-well plates and treated with 5 μg/ml of (R)-NALPCE, 10 nmole of PMA, or 50 ng/ml of TPO, followed by incubation in a day-dependent manner for 5 days. They were observed under an optical microscope with 200× magnification.

HEL cells [4] = experiment: Differentiation inductivity, lineage receptor expression by FACS, HEL cells; conditions: 5 μg/ml (R)-NALPCE 5 days or 10 nM PMA 3 days
Method: HEL cells were aliquoted at a density of 3×10^5 cells per well in 6-well plates and treated separately with 5 μg/ml of (R)-NALPCE and 10 nM of 12-phorbol myristate-13-acetate (PMA) (Calbiochem.), followed by incubation for 5 and 3 days, respectively. After centrifugation (1,000 rpm, 10 min), cell pellets thus obtained were washed three times with 0.01% bovine serum albumin (BSA) in PBS and incubated with 10 μl of anti-CD61-fluorescein-5-isothiocyanate (FITC) (Dako Chemicals, Carpenteria, Calif.), 20 μl of anti-CD16-Cy-Chrome (Cy) (BD Pharmingen), 10 μl of anti-glycophorin ACD235a-phycoerythrin (PE) (Dako Chemicals, Carpenteria, Calif.), and 20 μl of anti-CD14-allophycocyanin (APC) (BD Pharmingen) in 200 μl of 0.01% bovine serum albumin (BSA)-PBS at 4° C. for 50 min with spinning so as to achieve homogenous fluorescent staining over the cells. After centrifugation (1,000 rpm, 10 min), the cell pellets thus obtained were washed three times with 0.01% bovine serum albumin (BSA) in PBS. Fluorescence was analyzed on a fluorescence-activated cell sorter (FACS) (Aria) using a Cellquest program.

CCCCCCCCCCCCCC(=O)O[C@@H]1[C@@H](C)[C@@]2(O)[C@@H](C=C(CO)C[C@]3(O)C(=O)C(C)=C[C@@H]23)[C@@H]2C(C)(C)[C@]12OC(C)=O [PMA, phorbol 12-myristate 13-acetate]
production or secretion of thrombocytes by differentiated megakaryocytes (K562 cells [1]; (R)-NALPCE with OP9 cells, PMA treatment): could not secrete thrombocytes; also recorded: could not produce thrombocyte-like cells | cell morphology (optical microscope) (K562 cells [1]; K562 cells on OP9 cells, 500 pmole of PMA): did not differentiate, but proliferated, like a control | cell morphology (optical microscope) (K562 cells [1]; K562 cells on OP9 cells, 10 nmole of PMA): increase in size, but with morphology different from that of those treated with (R)-NALPCE | thrombocyte-like morphology (K562 cells [1]; K562 cells on OP9 cells, 10 nmole of PMA, 5 days or more after treatment): no morphology similar to thrombocytes was observed | cell morphology (optical microscope) (K562 cells [1]; K562 cells on OP9 cells, 50 nmole of PMA): differentiate into macrophages | expression of CD41, CD16, glycophorin A and CD14 receptors (K562 cells [2]; K562 cells, 40 μg/ml (R)-NALPCE or 30 nM PMA, 4 days): CD41 (megakaryocyte-specific receptor), CD16 (neutrophil-specific receptor), CD14 (monocyte-specific receptor) were expressed, particularly with a great increase of CD41 | number of cells expressing CD41, PMA versus (R)-NALPCE (K562 cells [2]; leukemia cells derived from human bone marrow, without OP9 cells): increased in number more in a medium containing PMA than in a medium containing (R)-NALPCE | cell morphology (optical microscope) (HEL cells [3]): increased in size, but with morphology different from that upon treatment with (R)-NALPCE, and differentiated into macrophages | expression of CD61, CD235a, CD16 and CD14 receptors (HEL cells [4]): CD61 (megakaryocyte-specific receptor), CD16 (neutrophil-specific receptor), and CD14 (monocyte-specific receptor) were expressed, particularly with a great increase of CD61

TPO: TPO, comparison agent applied at 50 ng/ml to HEL cells; abbreviation not expanded in the text
cell morphology (optical microscope) (HEL cells [3]): did not undergo significant change
